Experimental data: patent US20040121410A1, “Pain signaling molecules” (priority 2002, published 2004)
“Also recorded” adds a separate entry of the source. Like-named read-outs stand apart in the source and are kept apart here. Where a SMILES comes first, the peptide text is derived from it. Where no end group is shown, it is not given here. [ ]: non-standard residue; d: D form. pGlu = O=C1CC[C@@H](C(=O)O)N1

How the values were obtained:
[1] = target: T1, MrgC11 (Mus musculus, UniProt Q8CIP3); assay: calcium-mobilization assay (FLEXstation, Fura-2/AM) in HEK-MrgC11 cells; format: cell-based; details: for activation of MrgC11 (in words): calcium response
T1 construct: A full-length MrgC11 cDNA was cloned from the newborn DRG cDNA library; expressed in transfected cells
T1 sequence (Q8CIP3 1-322): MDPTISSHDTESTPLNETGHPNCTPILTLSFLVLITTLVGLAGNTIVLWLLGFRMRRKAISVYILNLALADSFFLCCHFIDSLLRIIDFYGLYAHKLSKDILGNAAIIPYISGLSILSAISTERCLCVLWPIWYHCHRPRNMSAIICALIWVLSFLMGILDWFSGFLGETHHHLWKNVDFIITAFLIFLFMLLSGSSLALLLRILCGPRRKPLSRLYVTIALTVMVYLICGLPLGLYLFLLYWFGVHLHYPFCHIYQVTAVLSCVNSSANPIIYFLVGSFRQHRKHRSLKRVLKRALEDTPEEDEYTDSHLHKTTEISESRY
Procedure: (§1) To address the questions of the ligand selectivity of the MrgC11 receptor, human embryonic kidney (HEK) 293 cells stably expressing either MrgA1 or MrgC11 were established. Neuropeptides were screened to identify ligands and agonists.
(§2) HEK293 cells were transfected with cDNA encoding the MrgAl-GFP, mNPFF2-GFP or MrgC11-GFP in pcDNA3.1/Zio(+) plasmid (Invitrogen) using the FuGENE6 transfection reagent (Roche Molecular Biomolecules). The transfected cells were selected with 400 μg/ml zeocin in DMEM supplemented with 10% FBS. Each cloned cell was further selected for membrane localization of receptor-GFP fusion protiens.
(§3) The selected cells were maintained in the same medium supplemented with 200 μg/ml zeocin. The stable cell lines were designated HEK-MrgA1, HEK-NPFF2 and HEK-MrgC11.
(§4) To identify putative ligands for MrgC11 and MrgA1 receptors, HEK-MrgC11 or HEKMrgA1 stable cell lines were screened in a calcium-mobilization assay using a fluorescence-imaging plate reader (FLEXstation). Briefly, HEK-MrgA1 or HEK-MrgC11 were plated in 96-black-well plates (Corning) and grown to confluence. After incubation with Fura-2/AM for >20 min, cells were washed and equilibrated for 20 min with HBSS (Hanks' balanced salt solution) assay buffer. The fluorescence emission caused by intracellular calcium mobilization elicited by agonists was determined by using a fluorometric imaging plate reader, Flexstation (Molecular Devices). All peptides were from Phoenix Pharmaceuticals (St. Joseph, Mo.), Bachem, American Peptide (Sunnyvale, Calif.), or Sigma.

[2] = target: T2, MrgA1 (Mus musculus, UniProt Q91WW5); assay: calcium-mobilization assay (FLEXstation, Fura-2/AM) in HEK-MrgA1 cells; format: cell-based
T2 construct: expressed in transfected cells
T2 sequence (Q91WW5 1-304): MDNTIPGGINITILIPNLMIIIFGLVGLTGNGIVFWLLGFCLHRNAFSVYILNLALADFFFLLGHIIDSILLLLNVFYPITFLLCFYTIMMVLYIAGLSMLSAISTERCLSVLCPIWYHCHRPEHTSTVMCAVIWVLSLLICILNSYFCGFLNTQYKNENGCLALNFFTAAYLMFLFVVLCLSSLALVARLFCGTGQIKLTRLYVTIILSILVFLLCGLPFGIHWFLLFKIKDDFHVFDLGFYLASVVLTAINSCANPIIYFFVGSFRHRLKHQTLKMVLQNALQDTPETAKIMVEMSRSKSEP
Procedure: as §1, §2, §3, §4

[3] = test system: FLRFa-induced calcium release in HEK-MrgA1; assay: FLRFa-induced [Ca2+]i response in HEK-MrgA1 with pathway inhibitors; format: cell-based, human; details: HEK-MrgA1, 3 μM FLRFa; 10 μM U73122 or U73343 10 min pretreatment; 1 μM TG in 2 mM EGTA
Procedure: (§5) Cells loaded with Fura-2/AM were stimulated with each agonist and fluorescence was recorded. Graphs represent an average plot of [Ca^2+]i measurements versus time (in s) in a minimum of 8 cells from representative experiments. Individual data points represent images taken at 0.8-s intervals. […] After a 10 minute pretreatment with U73122 and U73343, each agonist was added. FIGS. 2B and E show the extracellular [Ca^2+] dependency of Ca^2+ mobilization. Cells were preincubated for 2 minutes with 2 mM EGTA (open circles) or normal medium containing 1.2 mM calcium (closed circles) and then 3 μM FLRFa or 1 μM γ2-MSH was added. […] In the presence of 2 mM EGRA, TG (1 μM final concentration) was added to deplete internal Ca^2+ stores.
(§6) The calcium source responsible for the initial peak in [Ca^2+]i was determined by depleting internal calcium stores with the application of 1 μM TG (FIGS. 2C and F).
(§7) Heterotrimeric G proteins of the Gαi and Gαq class are involved in the propagation of signals from GPCRs leading to [Ca^2+]i elevation (Guderman et al. Ann. Rev. Pharmacol. Toxicol. 36:429-459 (1996)). To determine whether Gαi/o proteins are involved in the [Ca^2+]i response, we pretreated HEK-MrgA1 or HEK-MrgC11 cells with PTX (100 ng/ml) for 16 h. […] The dose dependency in [Ca^2+]i responses for both receptors were not affected by PTX (FIGS. 4A and D).

[4] = test system: γ2-MSH-induced calcium release in HEK-MrgC11; assay: γ2-MSH-induced [Ca2+]i response in HEK-MrgC11 with pathway inhibitors; format: cell-based, human; details: HEK-MrgC11, 1 μM γ2-MSH; 10 μM U73122 or U73343 10 min pretreatment; 1 μM TG in 2 mM EGTA
Procedure: as §5, §6, §7

[5] = Table 2, chirally modified FMRFa peptides, HEK-MrgC11 cells, mean ± SEM, triplicate, read-out: EC50 MrgC11
[6] = Table 2, chirally modified FMRFa peptides, HEK-MrgA1 cells, mean ± SEM, triplicate, read-out: EC50 MrgA1
[7] = Table 1, HEK-MrgC11 cells, FLEXstation assay, means ± SEM, triplicate, Inactive = no activation detected at concentrations up to 10 mM, read-out: EC50 MrgC11
[8] = Table 1, HEK-MrgA1 cells, FLEXstation assay, means ± SEM, triplicate, Inactive = no activation detected at concentrations up to 10 mM
[9] = Table 2, chirally modified FMRFa peptides, HEK-MrgA1 cells, mean ± SEM, triplicate

Compound	EC50 [1, 7] [nM]	EC50 MrgA1 [2, 8]	EC50 [1] [nM]	other results
CSCC[C@H](NC(=O)[C@H](N)Cc1ccccc1)C(=O)N[C@@H](CCCNC(=N)N)C(=O)N[C@@H](Cc1ccccc1)C(N)=O [(D)F-M-R-Fa]	–	–	–	EC50 [1, 5]: 108 ± 1 nM; EC50 [2, 6]: 882 ± 55 nM
N=C(N)NCCC[C@H](NC(=O)CNC(=O)[C@@H]1CCC(=O)N1)C(=O)N[C@@H](Cc1ccccc1)C(N)=O [AnthoRF-amide] ([pGlu]GRF-NH2)	16 ± 6	Inactive	–	–
CSCC[C@H](NC(=O)[C@H](Cc1ccccc1)NC(=O)CNC(=O)CNC(=O)[C@@H](N)Cc1ccc(O)cc1)C(=O)N[C@@H](CCCNC(=N)N)C(=O)N[C@@H](CCCNC(=N)N)C(=O)N[C@H](C(=O)NCC(=O)N[C@@H](CCCNC(=N)N)C(=O)N1CCC[C@H]1C(=O)N[C@@H](CCC(=O)O)C(=O)N[C@@H](Cc1c[nH]c2ccccc12)C(=O)N[C@@H](Cc1c[nH]c2ccccc12)C(=O)N[C@@H](CCSC)C(=O)N[C@@H](CC(=O)O)C(=O)N[C@@H](Cc1ccc(O)cc1)C(=O)N[C@@H](CCC(N)=O)C(=O)N[C@@H](CCCCN)C(=O)N[C@@H](CCCNC(=N)N)C(=O)N[C@@H](Cc1ccc(O)cc1)C(=O)NCC(=O)O)C(C)C [BAM-22P]	–	–	26 ± 10	EC50 [2]: 2540 nM
CSCC[C@@H](NC(=O)[C@@H](N)Cc1ccccc1)C(=O)N[C@@H](CCCNC(=N)N)C(=O)N[C@@H](Cc1ccccc1)C(N)=O [F-(D)M-R-Fa]	–	–	–	EC50 [1, 5]: 11 ± 4 nM; EC50 [2, 6]: 1260 nM
CSCC[C@H](NC(=O)[C@@H](N)Cc1ccccc1)C(=O)N[C@@H](CCCNC(=N)N)C(=O)N[C@H](Cc1ccccc1)C(N)=O [F-M-R-(D)Fa]	–	–	–	EC50 MrgC11, nM ([1]; Table 2, chirally modified FMRFa peptides, HEK-MrgC11 cells, mean ± SEM, triplicate): Inactive; EC50 [2, 6]: 643 ± 80 nM
CC(C)C[C@H](NC(=O)CNC(=O)[C@H](Cc1ccccc1)NC(=O)[C@H](CO)NC(=O)[C@H](CC(N)=O)NC(=O)[C@H](Cc1c[nH]c2ccccc12)NC(=O)[C@H](CC(N)=O)NC(=O)[C@H](Cc1ccc(O)cc1)NC(=O)[C@H](CC(N)=O)NC(=O)[C@@H]1CCCN1C(=O)[C@H](CC(C)C)NC(=O)[C@H](CC(=O)O)NC(=O)[C@@H](N)CCCCN)C(=O)N[C@@H](CCCNC(=N)N)C(=O)N[C@@H](Cc1ccccc1)C(N)=O [Kiss(107-121)]	102 ± 24	Inactive	–	–
CC(C)C[C@H](NC(=O)CNC(=O)[C@H](Cc1ccccc1)NC(=O)[C@H](CO)NC(=O)[C@H](CC(N)=O)NC(=O)[C@H](Cc1c[nH]c2ccccc12)NC(=O)[C@H](CC(N)=O)NC(=O)[C@@H](N)Cc1ccc(O)cc1)C(=O)N[C@@H](CCCNC(=N)N)C(=O)N[C@@H](Cc1ccccc1)C(N)=O [Kiss(112-121)]	50 ± 4	Inactive	–	–
CC(C)C[C@H](NC(=O)[C@@H](N)Cc1ccccc1)C(=O)N[C@@H](Cc1ccccc1)C(=O)N[C@@H](CCC(N)=O)C(=O)N1CCC[C@H]1C(=O)N[C@@H](CCC(N)=O)C(=O)N[C@@H](CCCN=C(N)N)C(=O)N[C@@H](Cc1ccccc1)C(N)=O [NPFF]	–	–	54 ± 5	EC50 [2]: 2150 nM
N=C(N)NCCC[C@H](N)C(=O)N[C@@H](Cc1ccccc1)C(N)=O [R-Fa]	–	–	460 ± 35	EC50 MrgA1, nM [2, 9]: Inactive; EC50 MrgA1, nM ([2]; Table 2, chirally modified FMRFa peptides, HEK-MrgA1 cells, mean ± SEM, triplicate, listed as RFa): not able to activate
N=C(N)NCCC[C@H](N)C(=O)N[C@@H](Cc1ccccc1)C(=O)O [R-F—OH]	–	–	–	EC50 [1, 5]: 632 ± 124 nM; EC50 MrgA1, nM [2, 9]: Inactive; EC50 MrgA1, nM ([2]; Table 2, chirally modified FMRFa peptides, HEK-MrgA1 cells, mean ± SEM, triplicate, listed as RF-OH): not able to activate
C/C=C(/C)C(=O)O[C@H]1C(C)=C2[C@H]([C@@H]1OC(=O)CCCCCCC)[C@@](C)(OC(C)=O)C[C@H](OC(=O)CCC)[C@@]1(O)[C@H]2OC(=O)[C@@]1(C)O [TG, thapsigargin]	–	–	–	effect on FLRFa-induced calcium response [3]: prevents; also recorded: blocked the response; effect on γ2-MSH-induced calcium response [4]: prevents; also recorded: blocked the response
COc1ccc2c(c1)CC[C@@H]1[C@@H]2CC[C@]2(C)[C@@H](NCCCCCCN3C(=O)C=CC3=O)CC[C@@H]12 [U73122]	–	–	–	effect on FLRFa-induced calcium response [3]: blocked; also recorded: completely inhibited; effect on γ2-MSH-induced calcium response [4]: blocked; also recorded: completely inhibited
CSCC[C@H](NC(=O)[C@@H](NC(=O)[C@@H](N)Cc1ccc(O)cc1)C(C)C)C(=O)NCC(=O)N[C@@H](Cc1c[nH]cn1)C(=O)N[C@@H](Cc1ccccc1)C(=O)N[C@@H](CCCNC(=N)N)C(=O)N[C@@H](Cc1c[nH]c2ccccc12)C(=O)N[C@@H](CC(=O)O)C(=O)N[C@@H](CCCNC(=N)N)C(=O)N[C@@H](Cc1ccccc1)C(N)=O [γ1-MSH]	17 ± 3	Inactive	–	–
AGEGLNSQFWSLAAPQRF-NH2 [NPAF]	–	Inactive	282 ± 30	–
IRPKLKWDNQKRYG [Dynnorphin-14]	–	Inactive	22 ± 1	–
KHEYLRF-NH2 [AF-2]	–	Inactive	130 ± 24	–
TPDINPAWYTGRGIRPVGRF-NH2 [PrRP-20]	144 ± 18	Inactive	–	–
VGRPEWWMDYQKRY-NH2 [BAM-15-amide]	479 ± 14	–	–	EC50 ([2]; Table 1, HEK-MrgA1 cells, FLEXstation assay, means ± SEM, triplicate, Inactive = no activation detected at concentrations up to 10 mM, read-out: EC50 MrgA1): 8770 nM
YGGFMRF-NH2 [Met-ENK-RFamide]	–	–	133 ± 20	EC50 [2]: 5250 nM
YGGFMRF-OH [Met-Enk-RF]	–	Inactive	545 ± 19	activation of MrgA1 (in words) ([2]; HEK-MrgA1 cells, calcium response): complete loss of activity
YGGFMRRVGRPEWWMDYQKRYGGFL [BAM3200]	–	–	300 ± 124	EC50 [2]: > 10000 nM
α-MSH	–	–	–	activation of MrgC11 (in words) ([1]; HEK-MrgC11 cells): not activated
β-MSH	–	–	–	activation of MrgC11 (in words) ([1]; HEK-MrgC11 cells): not activated

Second part, led by results:

EC50 [1, 7] [nM]	EC50 MrgA1 [2, 8]	Compound	EC50 [1] [nM]	other results
113 ± 5	Inactive	CC(C)C[C@H](NC(=O)[C@H](CC(N)=O)NC(=O)[C@@H]1CCCN1C(=O)[C@@H](N)C(C)C)C(=O)N1CCC[C@H]1C(=O)N[C@@H](CCC(N)=O)C(=O)N[C@@H](CCCNC(=N)N)C(=O)N[C@@H](Cc1ccccc1)C(N)=O [RFRP-3]	–	–
–	Inactive	MPHSFANLPLRF-NH2 [RFRP-1] [listing 1 of 2 here]	–	–
1240	–	MPHSFANLPLRF-NH2 [RFRP-1] [listing 2 of 2 here]	–	–
46 ± 12	Inactive	SGQSWRPQGRF-NH2 [ACEP-1]	–	–
